Test results taken from PubChem BioAssay (NCI).
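Method: 48-hour compound exposure of cells in 96-well plates, five concentrations, linear interpolation of endpoints. TGI denotes the concentration required for complete inhibition of growth.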

Legend:
Test in all cases: NCI-60 cell line screen, 48 h
[1] = tested on: 786-0 renal
[2] = tested on: A549 NSCLC
[3] = tested on: ACHN renal
[4] = tested on: CAKI-1 renal
[5] = tested on: CCRF-CEM leukemia
[6] = tested on: COLO 205 colon
[7] = tested on: DLD-1 colon
[8] = tested on: DMS 114 small cell lung
[9] = tested on: DMS 273 small cell lung
[10] = tested on: EKVX NSCLC
[11] = tested on: HCC-2998 colon
[12] = tested on: HCT-116 colon
[13] = tested on: HCT-15 colon
[14] = tested on: HL-60(TB) leukemia
[15] = tested on: HOP-62 NSCLC
[16] = tested on: HT29 colon
[17] = tested on: K-562 leukemia
[18] = tested on: KM12 colon
[19] = tested on: LOX IMVI melanoma
[20] = tested on: M14 melanoma
[21] = tested on: M19-MEL melanoma
[22] = tested on: MALME-3M melanoma
[23] = tested on: MOLT-4 leukemia
[24] = tested on: NCI-H226 lung
[25] = tested on: NCI-H23 lung
[26] = tested on: NCI-H460 lung
[27] = tested on: NCI-H522 lung
[28] = tested on: OVCAR-3 ovarian
[29] = tested on: OVCAR-4 ovarian
[30] = tested on: OVCAR-5 ovarian
[31] = tested on: OVCAR-8 ovarian
[32] = tested on: RPMI-8226 leukemia
[33] = tested on: SF-268 CNS
[34] = tested on: SF-539 CNS
[35] = tested on: SK-MEL-2 melanoma
[36] = tested on: SK-MEL-28 melanoma
[37] = tested on: SK-MEL-5 melanoma
[38] = tested on: SN12C renal
[39] = tested on: SNB-19 CNS
[40] = tested on: SNB-75 CNS
[41] = tested on: SNB-78 CNS
[42] = tested on: SR leukemia
[43] = tested on: SW-620 colon
[44] = tested on: TK-10 renal
[45] = tested on: U251 CNS
[46] = tested on: UACC-257 melanoma
[47] = tested on: UO-31 renal
[48] = tested on: A498 renal
[49] = tested on: HOP-18 NSCLC
[50] = tested on: HOP-92 NSCLC
[51] = tested on: IGROV1 ovarian
[52] = tested on: KM20L2 colon
[53] = tested on: LXFL 529 NSCLC
[54] = tested on: RXF 393 renal
[55] = tested on: SF-295 CNS
[56] = tested on: SK-OV-3 ovarian
[57] = tested on: UACC-62 melanoma
[58] = tested on: XF 498 CNS
[59] = tested on: BT-549 breast
[60] = tested on: DU-145 prostate
[61] = tested on: HS 578T breast
[62] = tested on: MCF7 breast
[63] = tested on: MDA-MB-231 breast
[64] = tested on: MDA-MB-435
[65] = tested on: MDA-N
[66] = tested on: NCI/ADR-RES ovarian
[67] = tested on: PC-3 prostate
[68] = tested on: T-47D breast

## Nc1ccc2nc(Nc3ccc(Cl)c(Cl)c3)cnc2c1
[1]
  TGI: 33.1 µM
[2]
  TGI: 41.9 µM
[3]
  TGI: 91.9 µM
[4]
  TGI: > 100 µM
[5]
  TGI: 9.57 µM
[6]
  TGI: 34.9 µM
[7]
  TGI: > 100 µM
[8]
  TGI: 24.5 µM
[9]
  TGI: 34.1 µM
[10]
  TGI: > 100 µM
[11]
  TGI: 29.8 µM
[12]
  TGI: 33.4 µM
[13]
  TGI: 46.5 µM
[14]
  TGI: 31.6 µM
[15]
  TGI: 36.2 µM
[16]
  TGI: 36.9 µM
[17]
  TGI: 82.5 µM
[18]
  TGI: 32.3 µM
[19]
  TGI: 28 µM
[20]
  TGI: 27.4 µM
[21]
  TGI: 39.2 µM
[22]
  TGI: 35.3 µM
[23]
  TGI: 97.7 µM
[24]
  TGI: 41.8 µM
[25]
  TGI: 66.5 µM
[26]
  TGI: 45.3 µM
[27]
  TGI: 21.6 µM
[28]
  TGI: 36.7 µM
[29]
  TGI: 60.4 µM
[30]
  TGI: 46.8 µM
[31]
  TGI: > 100 µM
[32]
  TGI: 54.4 µM
[33]
  TGI: 37.8 µM
[34]
  TGI: 64.5 µM
[35]
  TGI: 37.7 µM
[36]
  TGI: 36.8 µM
[37]
  TGI: > 100 µM
[38]
  TGI: 33 µM
[39]
  TGI: 38.7 µM
[40]
  TGI: > 100 µM
[41]
  TGI: > 100 µM
[42]
  TGI: 35.5 µM
[43]
  TGI: 33.7 µM
[44]
  TGI: 60.6 µM
[45]
  TGI: 44.2 µM
[46]
  TGI: 71 µM
[47]
  TGI: 29.4 µM

## C#CCN(N=O)C(=O)NCCCCC(NC(=O)OCc1ccccc1)C(=O)OCc1ccccc1 (configuration not stated)
[1]
  TGI: > 100 µM
[48]
  TGI: > 100 µM
[3]
  TGI: > 100 µM
[4]
  TGI: 56.6 µM
[5]
  TGI: 45.1 µM
[7]
  TGI: 85.2 µM
[9]
  TGI: > 100 µM
[10]
  TGI: > 100 µM
[11]
  TGI: > 100 µM
[12]
  TGI: > 100 µM
[13]
  TGI: > 100 µM
[14]
  TGI: > 100 µM
[49]
  TGI: > 100 µM
[15]
  TGI: > 100 µM
[50]
  TGI: 42.1 µM
[16]
  TGI: > 100 µM
[51]
  TGI: > 100 µM
[17]
  TGI: 56.9 µM
[18]
  TGI: > 100 µM
[52]
  TGI: > 100 µM
[19]
  TGI: 28 µM
[53]
  TGI: 41.4 µM
[20]
  TGI: 68 µM
[21]
  TGI: 63 µM
[22]
  TGI: 71.6 µM
[23]
  TGI: 50.6 µM
[24]
  TGI: > 100 µM
[25]
  TGI: > 100 µM
[26]
  TGI: > 100 µM
[27]
  TGI: 30 µM
[28]
  TGI: 53.9 µM
[29]
  TGI: > 100 µM
[30]
  TGI: > 100 µM
[31]
  TGI: > 100 µM
[32]
  TGI: > 100 µM
[54]
  TGI: 81.7 µM
[33]
  TGI: 73.5 µM
[55]
  TGI: > 100 µM
[34]
  TGI: 37.4 µM
[35]
  TGI: > 100 µM
[36]
  TGI: > 100 µM
[37]
  TGI: > 100 µM
[56]
  TGI: > 100 µM
[38]
  TGI: > 100 µM
[39]
  TGI: > 100 µM
[40]
  TGI: > 100 µM
[41]
  TGI: > 100 µM
[43]
  TGI: 31.1 µM
[44]
  TGI: > 100 µM
[45]
  TGI: > 100 µM
[46]
  TGI: > 100 µM
[57]
  TGI: > 100 µM
[47]
  TGI: > 100 µM
[58]
  TGI: 74.1 µM

## N#CCCN(CCC#N)c1ccc(/C=C2\SC(=S)NC2=O)cc1
[1]
  TGI: > 100 µM
[48]
  TGI: > 100 µM
[2]
  TGI: > 100 µM
[3]
  TGI: > 100 µM
[59]
  TGI: 84.3 µM
[4]
  TGI: 59.7 µM
[5]
  TGI: > 100 µM
[6]
  TGI: > 100 µM
[60]
  TGI: > 100 µM
[10]
  TGI: > 100 µM
[11]
  TGI: > 100 µM
[12]
  TGI: > 100 µM
[13]
  TGI: > 100 µM
[14]
  TGI: > 100 µM
[15]
  TGI: > 100 µM
[50]
  TGI: > 100 µM
[61]
  TGI: > 100 µM
[16]
  TGI: > 100 µM
[51]
  TGI: > 100 µM
[17]
  TGI: > 100 µM
[18]
  TGI: > 100 µM
[19]
  TGI: > 100 µM
[20]
  TGI: > 100 µM
[22]
  TGI: > 100 µM
[62]
  TGI: > 100 µM
[63]
  TGI: > 100 µM
[64]
  TGI: > 100 µM
[65]
  TGI: > 100 µM
[23]
  TGI: > 100 µM
[24]
  TGI: > 100 µM
[25]
  TGI: > 100 µM
[26]
  TGI: > 100 µM
[27]
  TGI: > 100 µM
[66]
  TGI: > 100 µM
[28]
  TGI: > 100 µM
[29]
  TGI: > 100 µM
[30]
  TGI: > 100 µM
[31]
  TGI: > 100 µM
[67]
  TGI: > 100 µM
[32]
  TGI: > 100 µM
[54]
  TGI: > 100 µM
[33]
  TGI: > 100 µM
[55]
  TGI: > 100 µM
[34]
  TGI: > 100 µM
[35]
  TGI: > 100 µM
[36]
  TGI: > 100 µM
[37]
  TGI: > 100 µM
[56]
  TGI: > 100 µM
[38]
  TGI: > 100 µM
[39]
  TGI: > 100 µM
[40]
  TGI: > 100 µM
[42]
  TGI: > 100 µM
[43]
  TGI: > 100 µM
[68]
  TGI: > 100 µM
[44]
  TGI: > 100 µM
[45]
  TGI: 47 µM
[46]
  TGI: > 100 µM
[57]
  TGI: > 100 µM
[47]
  TGI: > 100 µM

## COc1cc(N)c2[nH]c3c(C)ccc(C)c3c2c1
[1]
  TGI: > 100 µM
[2]
  TGI: > 100 µM
[3]
  TGI: > 100 µM
[4]
  TGI: > 100 µM
[5]
  TGI: > 100 µM
[6]
  TGI: > 100 µM
[7]
  TGI: > 100 µM
[8]
  TGI: > 100 µM
[9]
  TGI: > 100 µM
[10]
  TGI: > 100 µM
[11]
  TGI: > 100 µM
[12]
  TGI: > 100 µM
[13]
  TGI: > 100 µM
[14]
  TGI: > 100 µM
[15]
  TGI: > 100 µM
[16]
  TGI: > 100 µM
[17]
  TGI: > 100 µM
[18]
  TGI: > 100 µM
[19]
  TGI: > 100 µM
[20]
  TGI: > 100 µM
[21]
  TGI: > 100 µM
[22]
  TGI: > 100 µM
[23]
  TGI: > 100 µM
[24]
  TGI: > 100 µM
[26]
  TGI: > 100 µM
[27]
  TGI: > 100 µM
[28]
  TGI: > 100 µM
[29]
  TGI: > 100 µM
[30]
  TGI: > 100 µM
[31]
  TGI: > 100 µM
[32]
  TGI: > 100 µM
[33]
  TGI: > 100 µM
[55]
  TGI: > 100 µM
[34]
  TGI: > 100 µM
[35]
  TGI: > 100 µM
[36]
  TGI: > 100 µM
[37]
  TGI: > 100 µM
[38]
  TGI: > 100 µM
[39]
  TGI: > 100 µM
[40]
  TGI: > 100 µM
[41]
  TGI: > 100 µM
[42]
  TGI: > 100 µM
[43]
  TGI: > 100 µM
[44]
  TGI: > 100 µM
[46]
  TGI: > 100 µM
[47]
  TGI: > 100 µM
[58]
  TGI: > 100 µM
